Source: patent publication US12209087B2, “AKT1 modulators” (Alterome Therapeutics, Inc., priority 2022, dated 2025)
pIC50: −log10 of the molar value.

molecular target: T1, full length AKT E17K (Homo sapiens, UniProt P31749, E17K); test: NanoBRET Target Engagement (TE) Assay; type: cell-based; settings: competitive displacement of tracer in cells, read-out: AKT1 E17K IC50
T1 construct: host or cells: HEK-293 (ATCC CRL-1573)
Source text: The NanoBRET™ Target Engagement (TE) Intracellular Kinase Assays are based on the NanoBRET™ System (Promega Corporation), an energy transfer technique designed to measure molecular proximity in living cells. The NanoBRET™ TE Assays measure the apparent affinity of test compounds by competitive displacement of the NanoBRET™ tracer compound, which is a cell permeable molecule engineered to be reversibly bound to a NanoLuc® luciferase-kinase fusion expressed in cells. For compound screening, when a test compound binds to the selected kinase, the BRET signal is attenuated. […] All cells were evaluated for viability prior to transfection and optimization of the transfection was done prior to experimentation. […] Following transfection, cells were washed and resuspended in Opti-MEM. NanoBRET assays were performed in white, 384-well plates (Corning) at a density of […]. All example compounds were prepared as concentrated stock solutions in DMSO (Sigma-Aldrich). Compounds are dissolved in DMSO to make 10 mM stock solution. […] A Labcyte ECHO 550 compound dispenser was used to facilitate compound transfer directly to cells. Cells were equilibrated for 2 hr with energy transfer probes and example compound prior to BRET measurements. […] For target engagement analysis, the energy transfer probes were added to the cells at concentrations optimized for the target in question (AKT E17K). Following compound incubation, NanoBRET NanoGlo Substrate (Promega Cat #N157D) and Extracellular Nanoluc Inhibitor (Promega Cat #N235C) was added according to the manufacturer's recommended protocol, and luminescence was measured on Envision Reader (Perkin Elmer) Multimode Luminometer equipped with 450 nm BPfilter (donor) and 600 nm LPfilter (acceptor), using 0.5 s integration time. Milli-BRET units (mBU) are calculated by multiplying the raw BRET values by 1000. Apparent tracer affinity values (EC50) were determined using the sigmoidal dose-response (variable slope).
Competitive displacement data were then plotted and data were fit to determine the EC50 value for each example compound.

T1 sequence (P31749 whole entry E17K): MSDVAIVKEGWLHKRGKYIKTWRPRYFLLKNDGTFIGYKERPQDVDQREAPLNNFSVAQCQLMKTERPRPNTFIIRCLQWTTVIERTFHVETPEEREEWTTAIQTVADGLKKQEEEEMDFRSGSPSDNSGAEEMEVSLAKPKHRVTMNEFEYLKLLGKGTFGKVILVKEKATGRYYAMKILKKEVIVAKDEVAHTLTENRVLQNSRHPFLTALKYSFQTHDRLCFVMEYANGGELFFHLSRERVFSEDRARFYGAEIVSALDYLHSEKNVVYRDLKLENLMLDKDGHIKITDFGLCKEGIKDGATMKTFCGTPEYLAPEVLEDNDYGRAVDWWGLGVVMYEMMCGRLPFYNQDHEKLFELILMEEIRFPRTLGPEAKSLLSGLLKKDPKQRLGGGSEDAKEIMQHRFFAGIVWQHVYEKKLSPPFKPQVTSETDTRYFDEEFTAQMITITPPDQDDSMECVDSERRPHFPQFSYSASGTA

`N#Cc1nccc(NC2CCN(Cc3ccc(-n4c(-c5cccnc5N)nc5ccc(CF)nc54)cc3)CC2)n1` [Example 509, 4-((1-(4-(2-(2-Aminopyridin-3-yl)-5-(fluoromethyl)-3H-imidazo[4,5-b]pyridin-3-yl)benzyl)piperidin-4-yl)amino)pyrimidine-2-carbonitrile] and `Cc1cn(-c2ccc3nc(-c4cccnc4N)n(-c4ccc(CN5CCC(Nc6ccnc(C#N)n6)CC5)cc4)c3n2)nn1` [Example 593, 4-((1-(4-(2-(2-Aminopyridin-3-yl)-5-(4-methyl-1H-1,2,3-triazol-1-yl)-3H-imidazo[4,5-b]pyridin-3-yl)benzyl)piperidin-4-yl)amino)pyrimidine-2-carbonitrile] cannot be ordered by pIC50: > 7.82 for the first, > 7.82 for the second.

`[2H]C([2H])([2H])n1ncc(-c2ccc3nc(-c4cccnc4N)n(-c4ccc(CN5CCC(Nc6ccnc(C#N)n6)CC5)cc4)c3n2)n1` [Example 608, 4-((1-(4-(2-(2-Aminopyridin-3-yl)-5-(2-(methyl-d3)-2H-1,2,3-triazol-4-yl)-3H-imidazo[4,5-b]pyridin-3-yl)benzyl)piperidin-4-yl)amino)pyrimidine-2-carbonitrile] and `COc1cccc(-c2ccc3nc(-c4cccnc4N)n(-c4ccc(CN5CCC(Nc6ccnc(C#N)n6)CC5)cc4)c3n2)n1` [Example 476, 4-((1-(4-(2-(2-Aminopyridin-3-yl)-5-(6-methoxypyridin-2-yl)-3H-imidazo[4,5-b]pyridin-3-yl)benzyl)piperidin-4-yl)amino)pyrimidine-2-carbonitrile] cannot be ordered by pIC50: > 7.82 for the first, > 7.82 for the second.

`N#CCn1ncc(-c2ccc3nc(-c4nccnc4N)n(-c4ccc(CN5CCC(Nc6ccnc(C#N)n6)CC5)cc4)c3n2)n1` [Example 632, 4-((1-(4-(2-(3-Aminopyrazin-2-yl)-5-(2-(cyanomethyl)-2H-1,2,3-triazol-4-yl)-3H-imidazo[4,5-b]pyridin-3-yl)benzyl)piperidin-4-yl)amino)pyrimidine-2-carbonitrile] and `Cc1ccccc1-c1ccc2nc(-c3cccnc3N)n(-c3ccc(CN4CCC(Nc5ccnc(C#N)n5)CC4)cc3)c2n1` [Example 527, 4-((1-(4-(2-(2-Aminopyridin-3-yl)-5-(o-tolyl)-3H-imidazo[4,5-b]pyridin-3-yl)benzyl)piperidin-4-yl)amino)pyrimidine-2-carbonitrile] cannot be ordered by pIC50: > 7.82 for the first, > 7.82 for the second.

First: N#Cc1nccc(NC2CCN(Cc3ccc(-n4c(-c5cccnc5N)nc5ccccc54)cc3)CC2)n1 [Example 532, 4-((1-(4-(2-(2-Aminopyridin-3-yl)-1H-benzo[d]imidazol-1-yl)benzyl)piperidin-4-yl)amino)pyrimidine-2-carbonitrile]
Second: [2H]C([2H])(c1ccc(-n2c(-c3cccnc3N)nc3ccc(-c4ccc(F)cc4)nc32)cc1)N1CCC(Nc2ccnc(C#N)n2)CC1 [Example 489, 4-((1-((4-(2-(2-Aminopyridin-3-yl)-5-(4-fluorophenyl)-3H-imidazo[4,5-b]pyridin-3-yl)phenyl)methyl-d2)piperidin-4-yl)amino)pyrimidine-2-carbonitrile]
The pIC50 of the first is lower: 6.22 to 7.22 for the first, > 7.82 for the second.

First: N#Cc1ncnc(N[C@@H]2CCCN(Cc3ccc(-n4c(-c5cccnc5N)nc5ccc(-c6ccccc6)nc54)cc3)C2)n1 [Example 337, (R)-4-((1-(4-(2-(2-Aminopyridin-3-yl)-5-phenyl-3H-imidazo[4,5-b]pyridin-3-yl)benzyl)piperidin-3-yl)amino)-1,3,5-triazine-2-carbonitrile]
Second: N#Cc1cc(N2CCN(Cc3ccc(-n4c(-c5cccnc5N)nc5ccc(-c6ccccc6Cl)nc54)cc3)CC2)ncn1 [Example 326, 6-(4-(4-(2-(2-Aminopyridin-3-yl)-5-(2-chlorophenyl)-3H-imidazo[4,5-b]pyridin-3-yl)benzyl)piperazin-1-yl)pyrimidine-4-carbonitrile]
The pIC50 of the first is higher: > 7.82 for the first, 7.22 to 7.82 for the second. The first is the more potent here.

same assay, conditions: competitive tracer displacement in living cells, read-out: AKT1 E17K IC50

First: N#Cc1ncnc(N2CC3CCC(C2)N3Cc2ccc(-n3c(-c4cccnc4N)nc4ccc(-c5ccccc5)nc43)cc2)n1 [Example 271, 4-(8-(4-(2-(2-Aminopyridin-3-yl)-5-phenyl-3H-imidazo[4,5-b]pyridin-3-yl)benzyl)-3,8-diazabicyclo[3.2.1]octan-3-yl)-1,3,5-triazine-2-carbonitrile]
Second: N#Cc1ccnc(N2C3CCC2CN(Cc2ccc(-n4c(-c5cccnc5N)nc5ccc(-c6ccccc6)nc54)cc2)C3)n1 [Example 204, 2-(3-(4-(2-(2-Aminopyridin-3-yl)-5-phenyl-3H-imidazo[4,5-b]pyridin-3-yl)benzyl)-3,8-diazabicyclo[3.2.1]octan-8-yl)pyrimidine-4-carbonitrile]
The pIC50 of the first is higher: 7.22 to 7.82 for the first, 5.00 to 6.22 for the second. The first is the more potent here.

`N#Cc1ccc(C(=O)NCc2ccc(-n3c(-c4cccnc4N)nc4cccnc43)cc2)nc1` [Example 124, N-(4-(2-(2-Aminopyridin-3-yl)-3H-imidazo[4,5-b]pyridin-3-yl)benzyl)-5-cyanopicolinamide] and `N#Cc1cnnc(NCc2ccc(-n3c(-c4cccnc4N)nc4cccnc43)cc2)c1` [Example 50, 6-((4-(2-(2-Aminopyridin-3-yl)-3H-imidazo[4,5-b]pyridin-3-yl)benzyl)amino)pyridazine-4-carbonitrile] fall in the same range of pIC50: 5.00 to 6.22 for the first, 5.00 to 6.22 for the second.

First: N#Cc1nccc(NC2CCN(Cc3ccc(-n4c(-c5cccnc5N)nc5cccnc54)cc3)CC2)n1 [Example 92, 4-((1-(4-(2-(2-Aminopyridin-3-yl)-3H-imidazo[4,5-b]pyridin-3-yl)benzyl)piperidin-4-yl)amino)pyrimidine-2-carbonitrile]
Second: N#Cc1nccc(NC2CCN(Cc3ccc(-n4c(-c5cccnc5N)nc5ccc(-c6ccccc6Cl)nc54)cc3)CC2)n1 [Example 305, 4-((1-(4-(2-(2-Aminopyridin-3-yl)-5-(2-chlorophenyl)-3H-imidazo[4,5-b]pyridin-3-yl)benzyl)piperidin-4-yl)amino)pyrimidine-2-carbonitrile]
The pIC50 of the first is lower: 7.22 to 7.82 for the first, > 7.82 for the second.

First: N#Cc1cc(NC2CCN(Cc3ccc(-n4c(-c5cccnc5N)nc5ccc(-c6ccccc6F)nc54)cc3)CC2)ncn1 [Example 315, 6-((1-(4-(2-(2-Aminopyridin-3-yl)-5-(2-fluorophenyl)-3H-imidazo[4,5-b]pyridin-3-yl)benzyl)piperidin-4-yl)amino)pyrimidine-4-carbonitrile]
Second: N#Cc1cc(NC2C3CCC2CN(Cc2ccc(-n4c(-c5cccnc5N)nc5ccc(-c6ccccc6)nc54)cc2)C3)ncn1 (stereo not drawn) [Example 202, 6-((3-(4-(2-(2-Aminopyridin-3-yl)-5-phenyl-3H-imidazo[4,5-b]pyridin-3-yl)benzyl)-3-azabicyclo[3.2.1]octan-8-yl)amino)pyrimidine-4-carbonitrile]
The pIC50 of the first is higher: 7.22 to 7.82 for the first, 5.00 to 6.22 for the second. The first is the more potent here.

First: N#Cc1ncnc(N[C@H]2CCCN(Cc3ccc(-n4c(-c5cccnc5N)nc5ccc(-c6ccccc6)nc54)cc3)C2)n1 [Example 224, (S)-4-((1-(4-(2-(2-Aminopyridin-3-yl)-5-phenyl-3H-imidazo[4,5-b]pyridin-3-yl)benzyl)piperidin-3-yl)amino)-1,3,5-triazine-2-carbonitrile]
Second: N#Cc1nnccc1C(=O)N1CCN(Cc2ccc(-n3c(-c4cccnc4N)nc4ccc(-c5ccccc5)nc43)cc2)CC1 [Example 70, 4-(4-(4-(2-(2-Aminopyridin-3-yl)-5-phenyl-3H-imidazo[4,5-b]pyridin-3-yl)benzyl)piperazine-1-carbonyl)pyridazine-3-carbonitrile]
The pIC50 of the first is higher: > 7.82 for the first, 6.22 to 7.22 for the second. The first is the more potent here.

Work on `N#Cc1ccc(C(=O)NCc2ccc(-n3c(-c4cccnc4N)nc4cc(-c5ccccc5)cnc43)cc2)cn1` [Example 106, N-(4-(2-(2-Aminopyridin-3-yl)-6-phenyl-3H-imidazo[4,5-b]pyridin-3-yl)benzyl)-6-cyanonicotinamide] yielded a pIC50 of 5.00 to 6.22.
